Experimental data reported in ChEMBL document CHEMBL1201862, “PubChem BioAssay data set” (2004).
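Results reflect a 48-hour exposure of cells in 96-well plates to compound at five concentrations. GI50: concentration for 50% inhibition of growth.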 Calls of active or inactive are those of the source. Cut-off read from the data, not from the text of the source: active = GI50 up to about 1.1 µM and inactive = higher.

Assays:
Assay in all cases: growth of human tumour cells (NCI), 48 h
[1] = system: 786-0
[2] = system: A498
[3] = system: A549
[4] = system: ACHN
[5] = system: BT-549
[6] = system: CAKI-1
[7] = system: CCRF-CEM
[8] = system: COLO 205
[9] = system: DU-145
[10] = system: EKVX
[11] = system: HCC 2998
[12] = system: HCT-116
[13] = system: HCT-15
[14] = system: HL-60
[15] = system: HOP-62
[16] = system: HT-29
[17] = system: Hs-578T
[18] = system: IGROV-1
[19] = system: K562
[20] = system: KM12
[21] = system: LOX IMVI
[22] = system: M14
[23] = system: MCF7
[24] = system: MDA-MB-231
[25] = system: MDA-MB-435
[26] = system: MDA-N
[27] = system: MOLT-4
[28] = system: Malme-3M
[29] = system: NCI-H226
[30] = system: NCI-H23
[31] = system: NCI-H460
[32] = system: NCI/ADR-RES
[33] = system: OVCAR-3
[34] = system: OVCAR-4
[35] = system: OVCAR-5
[36] = system: OVCAR-8
[37] = system: PC-3
[38] = system: RPMI-8226
[39] = system: RXF 393
[40] = system: SF-268
[41] = system: SF-295
[42] = system: SF-539
[43] = system: SK-MEL-28
[44] = system: SK-MEL-2
[45] = system: SK-MEL-5
[46] = system: SK-OV-3
[47] = system: SN12C
[48] = system: SNB-19
[49] = system: SNB-75
[50] = system: SR
[51] = system: SW-620
[52] = system: T47D
[53] = system: TK-10
[54] = system: U-251
[55] = system: UACC-257
[56] = system: UACC-62
[57] = system: UO-31
[58] = system: HOP-92
[59] = system: NCI-H522

Compound: N#CC1C(=O)SC2c3ccccc3C(=O)c3ccccc3C12 (centres undefined)
- GI50 [1]: > 10 µM (inactive)
- GI50 [2]: > 10 µM (inactive)
- GI50 [3]: > 10 µM (inactive)
- GI50 [4]: > 10 µM (inactive)
- GI50 [5]: > 10 µM (inactive)
- GI50 [6]: > 10 µM (inactive)
- GI50 [7]: > 10 µM (inactive)
- GI50 [8]: > 10 µM (inactive)
- GI50 [9]: > 10 µM (inactive)
- GI50 [10]: > 10 µM (inactive)
- GI50 [11]: > 10 µM (inactive)
- GI50 [12]: > 10 µM (inactive)
- GI50 [13]: > 10 µM
- GI50 [14]: > 10 µM (inactive)
- GI50 [15]: > 10 µM (inactive)
- GI50 [16]: > 10 µM (inactive)
- GI50 [17]: > 10 µM (inactive)
- GI50 [18]: > 10 µM (inactive)
- GI50 [19]: > 10 µM (inactive)
- GI50 [20]: > 10 µM (inactive)
- GI50 [21]: > 10 µM (inactive)
- GI50 [22]: > 10 µM (inactive)
- GI50 [23]: > 10 µM (inactive)
- GI50 [24]: > 10 µM (inactive)
- GI50 [25]: > 10 µM (inactive)
- GI50 [26]: > 10 µM (inactive)
- GI50 [27]: > 10 µM (inactive)
- GI50 [28]: > 10 µM (inactive)
- GI50 [29]: > 10 µM (inactive)
- GI50 [30]: > 10 µM (inactive)
- GI50 [31]: > 10 µM (inactive)
- GI50 [32]: > 10 µM (inactive)
- GI50 [33]: > 10 µM (inactive)
- GI50 [34]: > 10 µM (inactive)
- GI50 [35]: > 10 µM (inactive)
- GI50 [36]: > 10 µM (inactive)
- GI50 [37]: > 10 µM (inactive)
- GI50 [38]: > 10 µM (inactive)
- GI50 [39]: > 10 µM (inactive)
- GI50 [40]: > 10 µM (inactive)
- GI50 [41]: > 10 µM (inactive)
- GI50 [42]: > 10 µM (inactive)
- GI50 [43]: > 10 µM (inactive)
- GI50 [44]: > 10 µM (inactive)
- GI50 [45]: > 10 µM (inactive)
- GI50 [46]: > 10 µM (inactive)
- GI50 [47]: > 10 µM (inactive)
- GI50 [48]: > 10 µM (inactive)
- GI50 [49]: 3.26 µM (inactive)
- GI50 [50]: > 10 µM (inactive)
- GI50 [51]: > 10 µM (inactive)
- GI50 [52]: > 10 µM (inactive)
- GI50 [53]: > 10 µM (inactive)
- GI50 [54]: > 10 µM (inactive)
- GI50 [55]: > 10 µM (inactive)
- GI50 [56]: > 10 µM (inactive)
- GI50 [57]: > 10 µM (inactive)

Compound: Cc1ccc(/C=C/C(=O)Oc2ccc(/C=C3\CCC/C(=C\c4ccc(OC(=O)/C=C/c5ccc(C)cc5)cc4)C3=O)cc2)cc1
- GI50 [1]: 16.7 µM (inactive)
- GI50 [3]: > 100 µM (inactive)
- GI50 [4]: 37.3 µM (inactive)
- GI50 [5]: > 100 µM (inactive)
- GI50 [6]: 79.8 µM (inactive)
- GI50 [7]: 60.8 µM (inactive)
- GI50 [8]: > 100 µM (inactive)
- GI50 [9]: > 100 µM (inactive)
- GI50 [10]: > 100 µM (inactive)
- GI50 [11]: > 100 µM (inactive)
- GI50 [12]: > 100 µM (inactive)
- GI50 [13]: > 100 µM
- GI50 [14]: 57.4 µM (inactive)
- GI50 [15]: 29.1 µM (inactive)
- GI50 [58]: 77.6 µM (inactive)
- GI50 [16]: > 100 µM (inactive)
- GI50 [17]: 19 µM (inactive)
- GI50 [20]: > 100 µM (inactive)
- GI50 [21]: > 100 µM (inactive)
- GI50 [22]: > 100 µM (inactive)
- GI50 [23]: > 100 µM (inactive)
- GI50 [24]: 28.8 µM (inactive)
- GI50 [25]: > 100 µM (inactive)
- GI50 [26]: > 100 µM (inactive)
- GI50 [27]: > 100 µM (inactive)
- GI50 [30]: > 100 µM (inactive)
- GI50 [31]: > 100 µM (inactive)
- GI50 [59]: > 100 µM (inactive)
- GI50 [32]: 59.3 µM (inactive)
- GI50 [33]: > 100 µM (inactive)
- GI50 [34]: > 100 µM (inactive)
- GI50 [35]: > 100 µM (inactive)
- GI50 [36]: 67.1 µM (inactive)
- GI50 [37]: > 100 µM (inactive)
- GI50 [38]: > 100 µM (inactive)
- GI50 [40]: > 100 µM (inactive)
- GI50 [41]: 25.1 µM (inactive)
- GI50 [42]: 21.3 µM (inactive)
- GI50 [43]: > 100 µM (inactive)
- GI50 [44]: 48.3 µM (inactive)
- GI50 [45]: > 100 µM (inactive)
- GI50 [47]: > 100 µM (inactive)
- GI50 [48]: 56.8 µM (inactive)
- GI50 [49]: 14.2 µM (inactive)
- GI50 [50]: 27.5 µM (inactive)
- GI50 [51]: > 100 µM (inactive)
- GI50 [52]: 92.3 µM (inactive)
- GI50 [53]: 31.4 µM (inactive)
- GI50 [54]: 34 µM (inactive)
- GI50 [55]: > 100 µM (inactive)
- GI50 [56]: 74.1 µM (inactive)
- GI50 [57]: > 100 µM (inactive)
